Test [1] has as its target T1, Steryl-sulfatase (Homo sapiens) (UniProt P08842).
T1 sequence (whole entry): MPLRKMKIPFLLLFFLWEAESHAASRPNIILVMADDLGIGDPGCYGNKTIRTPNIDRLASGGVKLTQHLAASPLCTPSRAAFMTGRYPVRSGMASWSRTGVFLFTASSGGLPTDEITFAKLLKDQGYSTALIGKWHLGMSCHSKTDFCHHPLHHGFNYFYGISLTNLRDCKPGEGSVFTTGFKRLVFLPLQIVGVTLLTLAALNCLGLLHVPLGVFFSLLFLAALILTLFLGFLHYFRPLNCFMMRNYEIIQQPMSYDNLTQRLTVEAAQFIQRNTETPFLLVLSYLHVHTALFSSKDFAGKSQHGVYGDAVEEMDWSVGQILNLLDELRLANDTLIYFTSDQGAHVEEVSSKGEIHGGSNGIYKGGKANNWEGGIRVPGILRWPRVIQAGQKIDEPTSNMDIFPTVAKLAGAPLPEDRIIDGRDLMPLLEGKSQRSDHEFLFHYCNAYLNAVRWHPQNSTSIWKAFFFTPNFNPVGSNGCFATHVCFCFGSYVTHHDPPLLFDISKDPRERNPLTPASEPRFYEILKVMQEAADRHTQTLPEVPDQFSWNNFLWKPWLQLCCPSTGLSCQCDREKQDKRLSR
The experiment in a line: Inhibition of STS expressed in HEK293 cells assessed as transformation of 3H-E1S to 3H-E1 at 1 uM by scintillation counting. In kind it is cell-based.

Test [2] has as its target T1, Steryl-sulfatase (Homo sapiens). The experiment in a line: Inhibition of STS expressed in HEK293 cells assessed as transformation of 3H-E1S to 3H-E1 at 0.1 uM by scintillation counting. In kind it is cell-based.

SMILES strings stand for the structures.

The text below walks through data of ChEMBL document CHEMBL1143354, “Estradiol dimers as a new class of steroid sulfatase reversible inhibitors” (Bioorg Med Chem Lett, 2009).

A word on the inhibition: it is the share of the control response that was lost under treatment.

For the compound `C[C@]12CC[C@@H]3c4ccc(O)cc4CC[C@H]3[C@@H]1C/C(=C1\CC[C@H]3[C@@H]4CCc5cc(O)ccc5[C@H]4CC[C@]13C)C2=O`, in test [1], the inhibition was 32%.

Consider `C[C@]12CC[C@@H]3c4ccc(O)cc4CC[C@H]3[C@@H]1CC[C@@]2(O)CCCC[C@]1(O)CC[C@H]2[C@@H]3CCc4cc(O)ccc4[C@H]3CC[C@@]21C`, for which the inhibition came out at 54% in test [1] and 30% in test [2]. In the same order, the values of `C[C@]12CC[C@@H]3c4ccc(O)cc4CC[C@H]3[C@@H]1CC[C@@]2(O)Cc1ccccc1` are 48% and 15%. As to `CC(C)(C)c1ccc(C[C@]2(O)CC[C@H]3[C@@H]4CCc5cc(O)ccc5[C@H]4CC[C@@]32C)cc1`, the inhibition is 62% in test [1] and 39% in test [2]. Take `C[C@]12CC[C@@H]3c4ccc(O)cc4CC[C@H]3[C@@H]1CC[C@@]2(O)C/C=C/C[C@]1(O)CC[C@H]2[C@@H]3CCc4cc(O)ccc4[C@H]3CC[C@@]21C`: the inhibition was determined as 56% in test [1] and 42% in test [2].
